Measurements taken from patent US20240018161A1, “MODULATORS OF CYSTIC FIBROSIS TRANSMEMBRANE CONDUCTANCE REGULATOR” (VERTEX PHARMACEUTICALS INCORPORATED, priority 2020, published 2024).
Like-named read-outs stand apart in the source and are kept apart here.

Target: CFTR-mediated chloride transport in human intestinal epithelial enteroid cells (Homo sapiens, UniProt P13569)
Experiment: Membrane potential dye, Enteroid Assay A
Assay type: cell-based
Details: for EC50: read-out: Ent. A EC50
Outline: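 Membrane potential dye (20 μM methyl oxonol, with 30 μM CaCCinh-A01 and 30 μM Chicago Sky Blue) loaded 25 min at room temperature into ROCK-inhibitor-seeded human enteroid cells. Chloride-free stimulation buffer triggered transport, followed by 15 min fluorescence. % Activity relative to 3 μM/3 μM/300 nM triple-combination control.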

[1] = enteroid cells incubated with test compound 18-24 hours, acute 10 μM forskolin and 300 nM N-[2,4-bis(1,1-dimethylethyl)-5-hydroxyphenyl]-1,4-dihydro-4-oxoquinoline-3-carboxamide
[2] = percentage of chloride transport of triple combination control (3 μM N-[(6-amino-2-pyridyl)sulfonyl]-6-(3-fluoro-5-isobutoxy-phenyl)-2-[(4S)-2,2,4-trimethylpyrrolidin-1-yl]pyridine-3-carboxamide based)

Sequence of CFTR-mediated chloride transport in human intestinal epithelial enteroid cells (P13569 with tags, fused parts or gaps DEL508-508): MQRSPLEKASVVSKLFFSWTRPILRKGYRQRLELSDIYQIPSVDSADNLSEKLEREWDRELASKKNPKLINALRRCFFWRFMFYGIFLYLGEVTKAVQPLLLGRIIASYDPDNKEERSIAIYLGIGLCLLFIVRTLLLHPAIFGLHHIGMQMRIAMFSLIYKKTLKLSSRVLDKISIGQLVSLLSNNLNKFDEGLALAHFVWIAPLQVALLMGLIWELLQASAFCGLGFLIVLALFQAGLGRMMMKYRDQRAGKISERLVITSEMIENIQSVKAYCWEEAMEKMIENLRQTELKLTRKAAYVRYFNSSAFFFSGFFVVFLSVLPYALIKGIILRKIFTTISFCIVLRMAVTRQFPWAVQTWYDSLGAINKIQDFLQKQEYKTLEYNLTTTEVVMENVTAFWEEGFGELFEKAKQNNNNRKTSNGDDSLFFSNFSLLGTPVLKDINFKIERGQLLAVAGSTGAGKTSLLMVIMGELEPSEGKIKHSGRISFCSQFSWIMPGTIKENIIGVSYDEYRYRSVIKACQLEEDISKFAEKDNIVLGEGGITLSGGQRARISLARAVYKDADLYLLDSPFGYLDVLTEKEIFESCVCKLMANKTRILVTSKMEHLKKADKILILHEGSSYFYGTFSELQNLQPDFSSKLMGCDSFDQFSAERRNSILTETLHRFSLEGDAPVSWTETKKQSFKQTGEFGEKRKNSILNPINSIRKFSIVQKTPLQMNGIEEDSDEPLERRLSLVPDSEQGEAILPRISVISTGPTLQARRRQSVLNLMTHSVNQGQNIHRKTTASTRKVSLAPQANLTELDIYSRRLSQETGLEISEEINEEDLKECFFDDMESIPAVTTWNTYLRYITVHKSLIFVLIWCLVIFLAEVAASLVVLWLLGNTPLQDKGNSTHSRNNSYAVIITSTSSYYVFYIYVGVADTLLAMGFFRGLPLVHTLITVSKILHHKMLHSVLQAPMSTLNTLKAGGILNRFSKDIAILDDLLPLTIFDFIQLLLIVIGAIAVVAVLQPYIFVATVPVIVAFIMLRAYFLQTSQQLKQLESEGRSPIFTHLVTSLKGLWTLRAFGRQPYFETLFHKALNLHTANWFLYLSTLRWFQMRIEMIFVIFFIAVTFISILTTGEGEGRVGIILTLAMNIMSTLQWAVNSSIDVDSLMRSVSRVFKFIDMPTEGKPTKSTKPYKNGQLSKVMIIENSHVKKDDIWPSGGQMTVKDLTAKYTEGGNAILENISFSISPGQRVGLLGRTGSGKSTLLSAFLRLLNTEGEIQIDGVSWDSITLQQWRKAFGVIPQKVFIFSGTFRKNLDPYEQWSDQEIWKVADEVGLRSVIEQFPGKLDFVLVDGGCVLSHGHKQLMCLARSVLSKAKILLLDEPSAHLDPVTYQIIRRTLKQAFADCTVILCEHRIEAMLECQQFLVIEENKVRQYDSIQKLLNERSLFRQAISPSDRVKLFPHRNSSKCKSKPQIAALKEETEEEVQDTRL

Cc1cccc(C)c1-c1cc2nc(n1)NS(=O)(=O)c1cccc(c1)C(=O)N1C[C@@H](CN(C3CC4(CCCC4)C3)C[C@H]1C(C)C)O2 [Compound 127, (16R,20R)-12-(2,6-dimethylphenyl)-20-(propan-2-yl)-18-{spiro[3.4]octan-2-yl}-15-oxa-8λ^6-thia-1,9,11,18,22-pentaazatetracyclo[14.4.1.13,7.110,14]tricosa-3(23),4,6,10(22),11,13-hexaene-2,8,8-trione]
Ent. A Max Activity (%) (Enteroid Assay A): ++ (++ is 30-60%)
EC50 (Enteroid Assay A): < 1000 nM

Cc1cccc(C)c1-c1cc2nc(n1)NS(=O)(=O)c1cccc(c1)C(=O)N1C[C@@H](CN(C3CC4(CCCCC4)C3)C[C@H]1C(C)C)O2 [Compound 128, (16R,20R)-12-(2,6-dimethylphenyl)-20-(propan-2-yl)-18-{spiro[3.5]nonan-2-yl}-15-oxa-8λ^6-thia-1,9,11,18,22-pentaazatetracyclo[14.4.1.13,7.110,14]tricosa-3(23),4,6,10(22),11,13-hexaene-2,8,8-trione]
Ent. A Max Activity (%) (Enteroid Assay A): ++ (++ is 30-60%)
EC50 (Enteroid Assay A): < 1000 nM

Cc1cccc(C)c1-c1cc2nc(n1)NS(=O)(=O)c1cccc(c1)C(=O)N1C[C@@H](CNC[C@@H]1CCC(C)C)O2 [Compound 130, (16R,20S)-12-(2,6-Dimethylphenyl)-20-(3-methylbutyl)-15-oxa-8λ^6-thia-1,9,11,18,22-pentaazatetracyclo[14.4.1.13,7.110,14]tricosa-3(23),4,6,10(22),11,13-hexaene-2,8,8-trione]
Ent. A Max Activity (%) (Enteroid Assay A): +++ (+++ is >600%)
EC50 (Enteroid Assay A): < 1000 nM

Cc1cccc(C)c1-c1cc2nc(n1)NS(=O)(=O)c1cccc(c1)C(=O)N1C[C@@H](CN(C)C[C@@H]1CCC(C)C)O2 [Compound 131, (16R,20S)-12-(2,6-Dimethylphenyl)-18-methyl-20-(3-methylbutyl)-15-oxa-8λ^6-thia-1,9,11,18,22-pentaazatetracyclo[14.4.1.13,7.110,14]tricosa-3(23),4,6,10(22),11,13-hexaene-2,8,8-trione]
Ent. A Max Activity (%) (Enteroid Assay A): ++ (++ is 30-60%)
EC50 (Enteroid Assay A): < 1000 nM

Cc1cccc(C)c1-c1cc2nc(n1)NS(=O)(=O)c1cccc(c1)C(=O)N1C[C@@H](CNC[C@@H]1C(C)C)O2 [Compound 133, (16R,20S)-12-(2,6-Dimethylphenyl)-20-(propan-2-yl)-15-oxa-8λ^6-thia-1,9,11,18,22-pentaazatetracyclo[14.4.1.13,7.110,14]tricosa-3(23),4,6,10(22),11,13-hexaene-2,8,8-trione]
Ent. A Max Activity (%) (Enteroid Assay A): +++ (+++ is >600%)
EC50 (Enteroid Assay A): < 1000 nM

Cc1cccc(C)c1-c1cc2nc(n1)NS(=O)(=O)c1cccc(c1)C(=O)N1C[C@@H](CNC[C@@H]1CC(C)(C)C)O2 [Compound 135, (16R,20S)-12-(2,6-Dimethylphenyl)-20-(2,2-dimethylpropyl)-15-oxa-8λ^6-thia-1,9,11,18,22-pentaazatetracyclo[14.4.1.13,7.110,14]tricosa-3(23),4,6,10(22),11,13-hexaene-2,8,8-trione]
Ent. A Max Activity (%) (Enteroid Assay A): ++ (++ is 30-60%)
EC50 (Enteroid Assay A): < 1000 nM

Cc1cccc(C)c1-c1cc2nc(n1)NS(=O)(=O)c1cccc(c1)C(=O)N1C[C@@H](CN(C)C[C@@H]1CC(C)(C)C)O2 [Compound 136, (16R,20S)-12-(2,6-Dimethylphenyl)-20-(2,2-dimethylpropyl)-18-methyl-15-oxa-8λ^6-thia-1,9,11,18,22-pentaazatetracyclo[14.4.1.13,7.110,14]tricosa-3(23),4,6,10(22),11,13-hexaene-2,8,8-trione]
Ent. A Max Activity (%) (Enteroid Assay A): +++ (+++ is >600%)
EC50 (Enteroid Assay A): < 1000 nM

Cc1cccc(C)c1-c1cc2nc(n1)NS(=O)(=O)c1cccc(c1)C(=O)N1C[C@@H](CN(C3CCCC3)C[C@H]1CC(C)C)O2 [Compound 138]
Ent. A Max Activity (%) (Enteroid Assay A): ++ (++ is 30-60%)
EC50 (Enteroid Assay A): < 1000 nM

Cc1cccc(C)c1-c1cc2nc(n1)NS(=O)(=O)c1cccc(c1)C(=O)N1C[C@@H](CN(C(C)C)C[C@H]1CC(C)C)O2 [Compound 139]
Ent. A Max Activity (%) (Enteroid Assay A): +++ (+++ is >600%)
EC50 (Enteroid Assay A): < 1000 nM

Cc1cccc(C)c1-c1cc2nc(n1)NS(=O)(=O)c1cccc(c1)C(=O)N1C[C@@H](CN(C3CC4(CCCCC4)C3)C[C@H]1CC(C)C)O2 [Compound 140]
Ent. A Max Activity (%) (Enteroid Assay A): +++ (+++ is >600%)
EC50 (Enteroid Assay A): < 1000 nM

Cc1cccc(C)c1-c1cc2nc(n1)NS(=O)(=O)c1cccc(c1)C(=O)N1C[C@@H](CN(C3CC4(CCCC4)C3)C[C@H]1CC(C)C)O2 [Compound 141]
Ent. A Max Activity (%) (Enteroid Assay A): +++ (+++ is >600%)
EC50 (Enteroid Assay A): < 1000 nM

Cc1cccc(C)c1-c1cc2nc(n1)NS(=O)(=O)c1cccc(c1)C(=O)N1C[C@@H](CN(C3CCC(F)(F)CC3)C[C@H]1CC(C)C)O2 [Compound 142]
Ent. A Max Activity (%) (Enteroid Assay A): +++ (+++ is >600%)
EC50 (Enteroid Assay A): < 1000 nM

Cc1cccc(C)c1-c1cc2nc(n1)NS(=O)(=O)c1cccc(c1)C(=O)N1C[C@@H](CN(CCC(C)(C)C)C[C@H]1CC(C)C)O2 [Compound 143]
Ent. A Max Activity (%) (Enteroid Assay A): +++ (+++ is >600%)
EC50 (Enteroid Assay A): < 1000 nM

Cc1cccc(C)c1-c1cc2nc(n1)NS(=O)(=O)c1cccc(c1)CN1C[C@@H](CN(CCC(C)(C)C)CC1=O)O2 [Compound 145]
Ent. A Max Activity (%) (Enteroid Assay A): ++ (++ is 30-60%)
EC50 (Enteroid Assay A): < 1000 nM

Cc1cccc(C)c1-c1cc2nc(n1)NS(=O)(=O)c1cccc(c1)C(=O)N1C[C@@H](CN(C3CCC(F)(F)CC3)C[C@@H]1C(C)C)O2 [Compound 146]
Ent. A Max Activity (%) (Enteroid Assay A): +++ (+++ is >600%)
EC50 (Enteroid Assay A): < 1000 nM

Cc1cccc(C)c1-c1cc2nc(n1)NS(=O)(=O)c1cccc(c1)C(=O)N1C[C@@H](CN(C3CC4(CCCC4)C3)C[C@@H]1C(C)C)O2 [Compound 147]
Ent. A Max Activity (%) (Enteroid Assay A): +++ (+++ is >600%)
EC50 (Enteroid Assay A): < 1000 nM

Cc1cccc(C)c1-c1cc2nc(n1)NS(=O)(=O)c1cccc(c1)C(=O)N1C[C@@H](CN(C3CC4(CCCCC4)C3)C[C@@H]1C(C)C)O2 [Compound 148]
Ent. A Max Activity (%) (Enteroid Assay A): +++ (+++ is >600%)
EC50 (Enteroid Assay A): < 1000 nM

Cc1cccc(C)c1-c1cc2nc(n1)NS(=O)(=O)c1cccc(c1)C(=O)N1C[C@@H](CN(C)C[C@@H]1C(C)C)O2 [Compound 149]
Ent. A Max Activity (%) (Enteroid Assay A): +++ (+++ is >600%)
EC50 (Enteroid Assay A): < 1000 nM

Cc1cccc(C)c1-c1cc2nc(n1)NS(=O)(=O)c1cccc(c1)C(=O)N1C[C@@H](CN(C3CC4(CCCCC4)C3)C[C@@H]1CC(C)C)O2 [Compound 150]
Ent. A Max Activity (%) (Enteroid Assay A): ++ (++ is 30-60%)
EC50 (Enteroid Assay A): < 1000 nM

Cc1cccc(C)c1-c1cc2nc(n1)NS(=O)(=O)c1cccc(c1)C(=O)N1C[C@@H](CN(CC(C)(C)C)C[C@@H]1CC(C)C)O2 [Compound 151]
Ent. A Max Activity (%) (Enteroid Assay A): ++ (++ is 30-60%)
EC50 (Enteroid Assay A): < 1000 nM

Cc1cccc(C)c1-c1cc2nc(n1)NS(=O)(=O)c1cccc(c1)C(=O)N1C[C@@H](CN(C3CCC(F)(F)CC3)C[C@@H]1CC(C)C)O2 [Compound 152]
Ent. A Max Activity (%) (Enteroid Assay A): ++ (++ is 30-60%)
EC50 (Enteroid Assay A): < 1000 nM

Cc1cccc(C)c1-c1cc2nc(n1)NS(=O)(=O)c1cccc(c1)C(=O)N1C[C@@H](CN(CCC(C)(C)C)C[C@@H]1CC(C)C)O2 [Compound 153]
Ent. A Max Activity (%) (Enteroid Assay A): ++ (++ is 30-60%)
EC50 (Enteroid Assay A): < 1000 nM

Cc1cccc(C)c1-c1cc2nc(n1)NS(=O)(=O)c1cccc(c1)C(=O)N1C[C@@H](CN(CC(C)(C)C)[C@@H](CC(C)C)C1)O2 [Compound 154]
Ent. A Max Activity (%) (Enteroid Assay A): +++ (+++ is >600%)
EC50 (Enteroid Assay A): < 1000 nM

Cc1cccc(C)c1-c1cc2nc(n1)NS(=O)(=O)c1cccc(c1)C(=O)N1C[C@@H](CN(CCC(C)(C)C)[C@@H](CC(C)C)C1)O2 [Compound 155]
Ent. A Max Activity (%) (Enteroid Assay A): +++ (+++ is >600%)
EC50 (Enteroid Assay A): < 1000 nM

Cc1cccc(C)c1-c1cc2nc(n1)NS(=O)(=O)c1cccc(c1)C(=O)N1C[C@@H](CN(C3CC4(CCCC4)C3)[C@@H](CC(C)C)C1)O2 [Compound 156]
Ent. A Max Activity (%) (Enteroid Assay A): +++ (+++ is >600%)
EC50 (Enteroid Assay A): < 1000 nM

Cc1cccc(C)c1-c1cc2nc(n1)NS(=O)(=O)c1cccc(c1)C(=O)N1CCN(CCC(C)(C)C)C[C@H](O2)[C@H]1CC(C)C [Compound 157]
Ent. A Max Activity (%) (Enteroid Assay A): +++ (+++ is >600%)
EC50 (Enteroid Assay A): < 1000 nM

Cc1cccc(C)c1-c1cc2nc(n1)NS(=O)(=O)c1cccc(c1)C(=O)N1CCN(C3CCC(F)(F)CC3)C[C@@H](O2)[C@H]1CC(C)C [Compound 158]
Ent. A Max Activity (%): +++ (key: +++ is >600%; ++ is 30-60%; + is <30%)

Cc1cccc(C)c1-c1cc2nc(n1)NS(=O)(=O)c1cccc(c1)C(=O)N1CCN(CCC(C)(C)C)C[C@@H](O2)[C@H]1CC(C)C [Compound 159]
Ent. A Max Activity (%) (Enteroid Assay A): +++ (+++ is >600%)
EC50 (Enteroid Assay A): < 1000 nM

Cc1cccc(C)c1-c1cc2nc(n1)NS(=O)(=O)c1cccc(c1)C(=O)N1CCNC[C@@H]1CO2 [Compound 161, (8R)-13-(2,6-Dimethylphenyl)-10-oxa-17λ^6-thia-3,6,14,16,23-pentaazatetracyclo[16.3.1.111,15.03,8]tricosa-1(21),11,13,15(23),18(22),19-hexaene-2,17,17-trione]
EC50 [1]: 3000 to 30000 nM
Ent. A Max Activity (%) [2]: ++ (++ is 30-60%)

Cc1cccc(C)c1-c1cc2nc(n1)NS(=O)(=O)c1cccc(c1)C(=O)N1CCN(C)C[C@@H]1CO2 [Compound 162, (8R)-13-(2,6-Dimethylphenyl)-6-methyl-10-oxa-17λ^6-thia-3,6,14,16,23-pentaazatetracyclo[16.3.1.111,15.03,8]tricosa-1(21),11,13,15(23),18(22),19-hexaene-2,17,17-trione]
EC50 [1]: 3000 to 30000 nM
Ent. A Max Activity (%) [2]: ++ (++ is 30-60%)

Cc1cccc(C)c1-c1cc2nc(n1)NS(=O)(=O)c1cccc(c1)C(=O)N1CCN(CCC3(C(F)(F)F)CC3)C[C@@H]1CO2 [Compound 163, (8R)-13-(2,6-Dimethylphenyl)-6-{2-[1-(trifluoromethyl)cyclopropyl]ethyl}-10-oxa-17λ^6-thia-3,6,14,16,23-pentaazatetracyclo[16.3.1.111,15.03,8]tricosa-1(22),11(23),12,14,18,20-hexaene-2,17,17-trione]
EC50 [1]: < 1000 nM
Ent. A Max Activity (%) [2]: +++ (+++ is >60%)
